Data as given in paper PMC3489043 (Nature neuroscience, 2011).
Like-named read-outs stand apart in the source and are kept apart here.

Key:
[1] = biological target: human α7 AChR (Homo sapiens, UniProt P36544); type: binding
[2] = test system: mutant α7 AChRs; type: binding, human
[3] = test system: α7–AChBP chimera; test: Radiolabeled ligand binding to the α7–AChBP chimera; design: species or system human / Lymnaea stagnalis
[4] = biological target: mutant α7 AChRs (Homo sapiens, UniProt P36544, W77F); type: binding
[5] = test system: muscle AChRs; settings: cited from earlier work
[6] = test system: α7 AChRs; settings: cited from earlier work

Sequence of human α7 AChR (P36544 23-502): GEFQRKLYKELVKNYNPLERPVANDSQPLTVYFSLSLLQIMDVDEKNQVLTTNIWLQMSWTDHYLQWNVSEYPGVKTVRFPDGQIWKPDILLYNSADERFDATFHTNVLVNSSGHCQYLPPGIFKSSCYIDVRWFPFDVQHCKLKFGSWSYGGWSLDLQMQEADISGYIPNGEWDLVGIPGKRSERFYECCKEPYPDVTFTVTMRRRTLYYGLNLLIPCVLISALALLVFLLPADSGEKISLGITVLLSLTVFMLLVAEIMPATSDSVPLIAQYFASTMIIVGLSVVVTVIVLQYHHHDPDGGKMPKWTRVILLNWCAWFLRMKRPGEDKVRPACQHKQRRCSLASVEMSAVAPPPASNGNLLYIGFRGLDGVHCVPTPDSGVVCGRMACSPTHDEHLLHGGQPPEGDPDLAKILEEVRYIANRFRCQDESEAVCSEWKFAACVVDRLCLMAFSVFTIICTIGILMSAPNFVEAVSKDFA
Sequence of mutant α7 AChRs (Homo sapiens, UniProt P36544, W77F) (P36544 23-502 W77F): as the sequence (P36544 23-502) above, with W55F counted along it

CC(=O)OCC[N+](C)(C)C [ACh, acetylcholine]
cooperativity of ACh binding ([1]; steady-state binding): highly cooperative | change of agonist affinity for the α7 AChR ([2]; substitutions at Arg182, Glu185, Glu181 (loop C) and Gln37, steady-state binding): increased affinity

Clc1ccc(C2CC3CCC2N3)cn1 (stereo not shown) [epibatidine]
binding of radiolabeled ligand to the α7–AChBP chimera ([3]; radiolabeled ligand, Supplementary Fig. 2): bound | epibatidine binding to the α7 AChR [1]: cooperatively and with high affinity | cooperativity of epibatidine binding [2]: maintained cooperativity | increase of the apparent dissociation constant by phenylalanine substitutions [2]: 4- to 2,200 fold | cooperativity of epibatidine binding [4]: markedly reduced cooperativity

C[N+](C)(C)CCO [choline]
efficacy at muscle AChRs [5]: low efficacy | efficacy at α7 AChRs [6]: high efficacy

α-bungarotoxin
binding of radiolabeled ligand to the α7–AChBP chimera [3]: bound
